This is an account of results in ChEMBL document CHEMBL1201862, “PubChem BioAssay data set” (2004).

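1) Cells in 96-well plates. 2) Compound, 48 h, 5 concentrations. 3) Linear interpolation between surrounding doses. 4) Unreached endpoint = highest concentration. At the GI50, growth is halved.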 Active and inactive are the calls of the source. Cut-off read from the data, not from the text of the source: active = GI50 up to about 1.1 µM and inactive = higher. Where only a bound is given, the exact number is not on record here.

Test systems include NCI/ADR-RES; HOP-18; LXFL 529; DLD-1; BT-549; Hs-578T; M19-MEL; MCF7; RXF 631.
What all share (test): NCI anticancer screen, dose series, 48 h

Regarding `CN1CCN(CCCN2c3ccccc3Sc3ccc(C(F)(F)F)cc32)CC1`, the GI50 with NCI/ADR-RES is 11.6 µM (inactive); with HOP-18 it was 9.89 µM (inactive); with LXFL 529, 10.2 µM (inactive); with DLD-1, 13.8 µM (inactive); in the assay with BT-549, 14.5 µM (inactive); in the assay on Hs-578T, 4.35 µM (inactive). Also, in the assay with M19-MEL, the GI50 was 1.87 µM (inactive).

`CC1C(=O)C(C)C(c2ccccc2)N(N=O)C1c1ccccc1` (configuration not stated): the GI50 was 179 µM (inactive) in the assay on NCI/ADR-RES; > 100 µM (inactive) in the assay on HOP-18; > 1000 µM (inactive) in the assay on LXFL 529; > 100 µM (inactive) with DLD-1; > 100 µM (inactive) with BT-549; 46.7 µM (inactive) with Hs-578T. Besides, the GI50 in the assay on M19-MEL and with MCF7 was > 100 µM (inactive) in each case.

Regarding `CC1=NN2C(c3ccc(C)cc3)=CSC2=NC(C)(C)C1`, the GI50 in the assay on HOP-18, with LXFL 529, in the assay on DLD-1 and in the assay on M19-MEL was > 100 µM (inactive) in each case.

Regarding `CCN(C(C)=N)c1ccccc1`, the GI50 in the assay on HOP-18 was > 100 µM (inactive); in the assay on LXFL 529, 75.9 µM (inactive); in the assay with DLD-1, > 100 µM (inactive); in the assay with M19-MEL, 95.5 µM (inactive).

For the compound `Nc1ccc(C(=O)N/C(=C\c2ccc3c(c2)OCO3)c2nc3ccc4c(c3[nH]2)C(=O)c2ccccc2C4=O)cc1`, the GI50 was 30.5 µM (inactive) with LXFL 529, 9.82 µM (inactive) in the assay with DLD-1, 37.3 µM (inactive) with RXF 631 and 38.2 µM (inactive) in the assay on M19-MEL.

As to `CNS(=O)(=O)NNS(=O)(=O)c1ccc(F)cc1`, the GI50 with LXFL 529, in the assay on DLD-1, with RXF 631 and in the assay with M19-MEL was > 100 µM (inactive) throughout.

`NCc1c(C(N)=O)ncn1Cc1ccccc1`: the GI50 in the assay with HOP-18, with LXFL 529 and in the assay with M19-MEL was > 100 µM (inactive) in each case.

In the case of `C[C@]12CCC3[C@@H](CC[C@@H]4c5nonc5CC[C@]34C)C1CCC(=O)N2` (some centres not stated), the GI50 with HOP-18, in the assay on LXFL 529, in the assay with RXF 631 and in the assay with M19-MEL was > 100 µM (inactive) in each case.

For the compound `CC(=O)NNc1nc(C)c(C(/C=C/c2ccc(Cl)cc2)=N/NC(=O)C[N+](C)(C)C)s1`, the GI50 in the assay with HOP-18, with LXFL 529, in the assay on DLD-1 and in the assay on M19-MEL was > 100 µM (inactive) throughout.

Regarding `Nc1nc(N)c(-c2ccccc2)c(C(=O)Nc2nccs2)n1`, the GI50 in the assay with HOP-18, in the assay on LXFL 529, in the assay with DLD-1, in the assay on RXF 631 and in the assay with M19-MEL was > 100 µM (inactive) each time.

As for `O=C(NN1C(=O)CS(=O)(=O)C1c1cccc(F)c1)c1ccncc1` (configuration not stated), the GI50 is < 0.01 µM (active) in the assay on HOP-18, > 100 µM (inactive) in the assay on LXFL 529, > 100 µM (inactive) in the assay on DLD-1 and > 100 µM (inactive) in the assay with RXF 631.

Take `CCOC(=O)NC(=O)c1cn(CCN2CCN(C(=O)CCCCCCCCCCNc3ncnc4[nH]cnc34)CC2)c(=O)[nH]c1=O`: the GI50 in the assay with HOP-18 was > 100 µM (inactive); with LXFL 529 it was 39.8 µM (inactive); with DLD-1, > 100 µM (inactive); in the assay on M19-MEL, > 100 µM (inactive).

Consider `Cc1ccc(S(=O)(=O)N/N=C(\C(=O)Nc2cccc([N+](=O)[O-])c2)c2nc3ccc([N+](=O)[O-])cc3nc2O)cc1`, for which the GI50 in the assay on LXFL 529 was 18.6 µM (inactive); in the assay with DLD-1, > 100 µM (inactive); with M19-MEL, 43.7 µM (inactive).

On to `CCCCCCCCCCCCC/C=C1\C[C@H](O)COC1=O`, for which the GI50 with HOP-18 is 17.4 µM (inactive); in the assay with LXFL 529 it was 16.3 µM (inactive); in the assay on DLD-1, 17 µM (inactive); in the assay on M19-MEL it was 18.4 µM (inactive).

As for `COc1cc(C(C)c2cc3c(cc2OCCNC(=O)COc2cc4c(cc2C(C)c2cc(OC)c(OC)c(OC)c2)OCO4)OCO3)cc(OC)c1OC` (configuration not stated), the GI50 was 44.2 µM (inactive) in the assay with LXFL 529, > 100 µM (inactive) in the assay with DLD-1, 86.3 µM (inactive) in the assay on RXF 631 and 80.2 µM (inactive) in the assay on M19-MEL.

On to `N#CC(/C(CCCC(=O)Nc1cccc([N+](=O)[O-])c1)=N\NC(=O)c1c(O)ccc2ccccc12)c1nc2ccccc2s1` (configuration not stated), for which the GI50 in the assay on HOP-18 is 23.1 µM (inactive); in the assay with LXFL 529, 30.8 µM (inactive); with DLD-1, 45.5 µM (inactive); in the assay with M19-MEL, 16.4 µM (inactive).

With `COc1cc2c(cc1O)C(C)Cc1cc3c(cc1N(C)CC2)OCO3` (configuration not stated), the GI50 is 10.5 µM (inactive) with HOP-18; 5.41 µM (inactive) in the assay on LXFL 529; 4.16 µM (inactive) in the assay on DLD-1; 18.7 µM (inactive) with RXF 631; 5.81 µM (inactive) with M19-MEL.

In the case of `COc1ccc(/C=C/C(=O)C(C)(C)CN2CCCCC2)cc1`, the GI50 with HOP-18 is 16.9 µM (inactive); in the assay with LXFL 529, 15.5 µM (inactive); in the assay with DLD-1 it was 18 µM (inactive); in the assay on M19-MEL, 16.4 µM (inactive).

With `[O-]/[N+](=C\c1ccccc1)[C@H](COCc1ccccc1)c1ccccc1`, the GI50 was 20.3 µM (inactive) in the assay on HOP-18; > 100 µM (inactive) with LXFL 529; > 100 µM (inactive) in the assay with DLD-1; > 100 µM (inactive) in the assay with RXF 631; > 100 µM (inactive) with M19-MEL.

As for `CC1=CCC[C@@]2(C)C(CC[C@@H]2C(C)/C=C/C(C)C)c2ccc(cc2C(=O)O)C[C@@H](O)CC1` (some centres not stated), the results for the GI50 in the assay on LXFL 529, with DLD-1 and in the assay with M19-MEL were 11.6 µM (inactive), 3.67 µM (inactive) and 12.7 µM (inactive), respectively.

As for `O=C(O)CC/C(=N\Nc1nsc2ccccc12)c1ccc(Cl)cc1`, the GI50 with HOP-18 was 4.19 µM (inactive); in the assay on LXFL 529 it was 19.4 µM (inactive); in the assay on BT-549, 25.1 µM (inactive); with Hs-578T, 33.3 µM (inactive); in the assay with M19-MEL, 35 µM (inactive); in the assay with MCF7, 5.75 µM (inactive).

For `COC(=O)C1N=CSCC1(C)O` (configuration not stated), the GI50 in the assay with HOP-18, with DLD-1 and with M19-MEL was > 100 µM (inactive) each time.

Turning to `O=C(/C=C\c1cccc2ccccc12)c1ccc(Cl)cc1Cl`, the GI50 is 22.8 µM (inactive) in the assay on HOP-18; 18.3 µM (inactive) in the assay on LXFL 529; 22 µM (inactive) in the assay with DLD-1; 23.8 µM (inactive) in the assay with RXF 631; 19.1 µM (inactive) in the assay on M19-MEL.

For `O=[N+]([O-])c1nccn1CC(O)c1ccccc1` (configuration not stated), the GI50 in the assay on HOP-18 and in the assay with LXFL 529 was > 100 µM (inactive) throughout.

With `COC(=O)[C@@]1(O)CC(C)C=C1C=O` (some centres not stated), the GI50 in the assay with HOP-18 is > 100 µM (inactive); with LXFL 529, 68.7 µM (inactive); in the assay on DLD-1, 43 µM (inactive); in the assay on M19-MEL it was 80.7 µM (inactive).

With `N#CC(C#N)=C(N)/C(C#N)=C/c1ccc(O)c(O)c1`, the GI50 was 41.5 µM (inactive) with NCI/ADR-RES; 40.7 µM (inactive) in the assay on LXFL 529; 71.3 µM (inactive) in the assay with DLD-1; > 100 µM (inactive) in the assay on BT-549; 48.4 µM (inactive) with Hs-578T; > 100 µM (inactive) with M19-MEL. Further, the GI50 with MCF7 was 75.2 µM (inactive).

Regarding `Cn1nnc2c(C(N)=O)ncn2c1=O` [TEMOZOLOMIDE], the GI50 in the assay with NCI/ADR-RES, in the assay with HOP-18, in the assay on LXFL 529, in the assay on DLD-1, in the assay with BT-549 and with Hs-578T was > 100 µM (inactive) each time. For the same compound, the GI50 in the assay with M19-MEL and with MCF7 was > 100 µM (inactive) in each case.
